{"source": "patent US12551479B2", "about": "“Acyl-protein thioesterase inhibitor for the treatment and/or prevention of Huntington's disease” (UNIVERSITÉ GRENOBLE ALPES, priority 2019, dated 2026)", "key": {"[1]": {"test_system": "brain palmitoylated proteins", "assay": "ABE (Acyl-Biotin-Exchange) assay on brain lysate", "assay_type": "in vivo, mice", "method": "In FIG. 4D, the graphic representation of the experiment set up to test the efficacy of the molecule to increase the level of palmitoylation in the brain 30 minutes after injection can be visualized. […] Brains were mechanically lysed in ice-cold buffer (1% IGEPAL CA-630; 50 mM Tris-HCl pH 7.5, 150 mM NaCl, 10% glycerol) containing 1:100 protease inhibitor cocktail (Sigma Aldrich P8340), 1 mM PMSF, 1:200 phosphatase inhibitor (Sigma Aldrich P5726), and 50 mM NEM (Sigma Aldrich E3876) to block free cystein. Brain lysates were rotated at 4° C. for 30 minutes before insoluble material was removed by centrifugation at 15.000 rpm for 10 minutes. Lysates were precleared by incubation with Dynabeads M-280 Streptavidin (Invitrogen 112.05D) for 30 minutes at 4° C. on the wheel. Proteins from precleared samples were then precipitated using chloroform-methanol assay. Each pellet was divided and resuspended in +HAM (2:3 of the pellet) (lysis buffer containing 1 mM HAM (Sigma 46780-4)) or −HAM (1:3 of the pellet) during 1 hour at room temperature on the wheel. Proteins were precipitated with chloroform-methanol method and the pellets were resuspended in Biotin-BMCC buffer (lysis buffer with 5 μM EZ-Link™ Biotin-BMCC (Thermo Fisher 21900)) for 1 hour at room temperature on the wheel. […]"}, "[2]": {"test_system": "Hdh^CAG140/+ mice", "assay": "Open Field test", "assay_type": "in vivo, mouse", "settings": "0.3 mg/kg/day subcutaneous infusion", "method": "Mice littermates were grouped into mixed treatment groups. Males and females were 6 months of age at the beginning of the treatment. For each specific test, all experimental groups were tested on the same day, during the light phase and between Days 16 and 28 of treatment. Prior to testing, mice were acclimatized to the test room for a period of 30 minutes. Treatments were randomly assigned and behavioral tests were performed 12 days before the end of the delivery of the treatment. […] Mice were excluded from analysis if their performance was calculated as a significant outlier by the Grubb test. One mouse was excluded based on these criteria. Mouse weights were measured prior to the start of treatment and until the end of testing.\nSpontaneous locomotion was measured as the total distance traveled and general anxiety as the number of entries into the internal area. The Open Field test was conducted in a opaque Plexiglas square chamber (50×50 cm) and the internal chamber was defined with a quadrangular shape of 12.50×12.50 cm. The mice were filmed for 60 minutes. The distance traveled and the number of entries into the internal chamber per 5-minute interval were measured using ViewPoint tracking software."}, "[3]": {"test_system": "cortical neurons derived from human induced pluripotent stem cells (iPSCs) from Huntington's disease patients", "assay": "BDNF-mCherry axonal trafficking in hiPSC-derived cortical neurons in microfluidic device", "assay_type": "cell-based", "settings": "1 μM daily for 7 days vs DMSO", "method": "Referring to FIG. 7A, the inventors again reproduced the corticostriatal network in vitro on a microfluidic device consisting of two neuronal chambers that are connected via microchannels. Experiments are performed over a period ranging from 0 to 40 days in vitro (DIV), the first 20 days for neuronal cell generation and differentiation of hiPSCs, followed by the introduction of the cells into the microfluidic device. 3 hours after introduction, cells were infected from the pre-synaptic compartment with a lentivirus encoding BDNF-mCHerry.\nThe human iPSC line ND42222 (RRID:CVCL_Y844 passage 42) “109Q” was obtained from Coriell Cell Repositories. This line is heterozygous for HTT p.Gln18[109] and therefore has 109 CAG repeats in one of the two HTT alleles. Amplification of human iPSCs, generation of neuronal cells and terminal differentiation were performed according to the work published in Gribaudo S. et al. (Stem Cell Reports 12, 230-244, 2019). 109Q cells were maintained on Vitronectin-coated plates (Life Technology) in mTeSRplus medium ([…] Technologies). Cultures were fed every other day and passaged by manual dissociation using 0.02% EDTA pH 7.2 (Merck Sigma-Aldrich) every 4-5 days. For neuronal differentiation, hiPSC colonies were treated (DIV0) as previously described (Nicoleau et al., 2013) in N2B27 medium consisting of 50% DMEMF-12 Glutamax, 50% neurobasal medium, 2% B27 supplement 50× without vitamin A, 1% N2 supplement, 0.1% penicillin streptomycin, and 50 μM β-mercaptoethanol (Thermofisher). Neuronal differentiation was initiated by passage of hiPSCs in N2B27 medium supplemented with SB431542 (20 μM, Tocris), LDN-193189 (100 nM, Sigma Aldrich) and XAV_939 (1 μM, Tocris) and 10 μM ROCK inhibitor (Y27632, Calbiochem) on low-adhesion culture plates (Greiner) for 6 hours. The medium was changed every day from DIV0 to DIV20. At DIV1, hiPSC aggregates were transferred to laminin poly-ornitine-coated dishes without Y27632. From DIV5 to DIV9, SB431542 was removed and FGF2 (10 ng/ml) and cyclopamine 1 μM (Merck) were added. […]"}}}
{"smiles": "O=C(CN1CCN(C(=O)c2ccco2)CC1)Nc1cc(C(F)(F)F)ccc1Cl", "note": "[ML-348]", "values": [{"measurement": "palmitoylation in brain (ABE, +HAM vs −HAM)", "setting": "[1]; HdH^CAG/+ mice, 28 days of treatment, 0.3 mg/kg/day subcutaneous osmotic pump", "result": "increase palmitoylation"}, {"measurement": "level of palmitoylation in brain lysates", "setting": "[1]; mice injected with 0.3 mg/kg, 30 minutes after injection", "result": "increased"}, {"measurement": "total distance traveled over 60 minutes (spontaneous locomotion)", "setting": "[2]", "result": "no effect"}, {"measurement": "number of entries into the central area over 60 minutes", "setting": "[2]; wild-type and Hdh^CAG/+ mice", "result": "no significant effect"}, {"measurement": "anterograde and retrograde transport velocities of BDNF-mCherry vesicles", "setting": "[3]", "result": "not statistically significant"}, {"measurement": "linear net flow", "setting": "[3]", "result": "significantly increased"}, {"measurement": "number of vesicles moving in either direction (anterograde, retrograde)", "setting": "[3]", "result": "significantly increased"}]}
